Measurements: paper PMC10567917 (Archives of Toxicology, 2023)
Values joined by “and” are separate entries in the source; they are usually repeats but may differ in a detail not shown here. Identical values can stand only once.

Key:
[1] = system: primary human hepatocytes; assay type: in vitro ADME
[2] = system: primary human hepatocytes
[3] = system: primary rat hepatocytes
[4] = system: primary mouse hepatocytes
[5] = system: intracellular proteins of primary human hepatocytes
[6] = system: rainbow trout; settings: in vivo; cited from earlier work

COc1cc2c(c3oc(=O)c4c(c13)CCC4=O)[C@@H]1C=CO[C@@H]1O2 [AFB1, Aflatoxin B1]
estimated intracellular concentration of AFB1 [1]: 1 mM
AFB1 remaining in culture medium [2]: 8.54 µM
concentration in culture medium [2]: 636 nM
AFB1 remaining in culture medium [3]: 3.48 µM
AFB1 in culture medium [4]: no longer detectable
AFB1 remaining in culture medium [4]: 0.2 µM
time up to which AFB1 was detectable in culture medium [4]: up to 6 h

COc1cc2c(c3oc(=O)c4c(c13)CCC4=O)[C@H]1[C@@H](O2)OC(SCC(NC(=O)CCC(N)C(=O)O)C(=O)NCC(=O)O)[C@@H]1O (stereo partly shown) [AFB1-GSH, AFB1-glutathione]
intracellular detection [1]: not detected
detection in culture medium [2]: not detected
concentration in culture medium [3]: 72 nM
concentration in culture medium (plateau) [3]: 415 nM

COc1cc(O)c(C2=CC(=O)N(CCCC[C@H](N)C(=O)O)C2)c2oc(=O)c3c(c12)CCC3=O [AFB1-Lys, AFB1-lysine]
AFB1-Lys in proteins of cell lysate [5]: around 1.0 pmol
detection in culture medium [3]: detected only in trace amounts

COc1cc2c(c3oc(=O)c4c(c13)CCC4=O)[C@H]1[C@@H](O2)OC(SCC(NC(C)=O)C(=O)O)[C@@H]1O (stereo partly shown) [AFB1-NAC, AFB1-N-acetylcysteine]
detection in culture medium [2]: not detected

COc1cc2c(c3oc(=O)c4c(c13)CCC4=O)C1(O)C=COC1O2 (stereo not shown) [AFM1, aflatoxin M1]
concentration in culture medium [2]: 33 nM and 46 nM
maximum concentration in culture medium [4]: 353 nM

O=C1CCc2c1c(=O)oc1c3c(cc(O)c21)O[C@H]1OC=C[C@@H]31 [AFP1, aflatoxin P1]
detection in culture medium [2]: just formed in trace amounts
detection in culture medium [3]: detected only in trace amounts
maximum concentration in culture medium [4]: 896 nM

O=C1CCc2c1c(=O)oc1c3c(cc(O[C@@H]4O[C@H](C(=O)O)[C@@H](O)[C@H](O)[C@H]4O)c21)O[C@H]1OC=C[C@@H]31 [AFP1-Glc, AFP1 glucuronide]
detection of AFP1-Glc [2]: no AFP1-Glc was detectable
AFP1-Glc level in mouse samples relative to rat samples [4]: about 100 fold

COc1cc2c(c3oc(=O)c4c(c13)[C@@H](O)CC4=O)[C@@H]1C=CO[C@@H]1O2 [AFQ1, aflatoxin Q1]
Formation rate [3]: 87 pmol/h and 74 700 pmol/h
concentration in culture medium [3]: 112 nM
maximum concentration in culture medium [4]: 25 nM
carcinogenic potency relative to AFB1 [6]: about 1%
